Patent US5593984A, “Cephalosporin derivatives” (Yuhan Corporation, priority 1992, dated 1997)
Values after ≈ are worked out from the molar mass of the structure shown.

Assays:
Assay type in all cases: cell-based
B. subtilis ATCC 6633 = assay: MIC by agar dilution, B. subtilis ATCC 6633; conditions: Bacillus subtilis, ATCC6633, 17 h; B. subtilis ATCC 6633; agar dilution, Mueller-Hinton agar; read-out: Minimal Inhibitory Concentration (MIC)
Description: (§1) These MIC values were determined by agar dilution method: that is, two-fold dilutions of each of the test compounds were made and dispersed in a Mueller-Hinton agar medium; standard test strain which had the 10^6 CFU (Colony Forming Unit) per ml was inoculated on the medium with microplanter (Toyo, Japan), and incubated at 35°-37° C. for 17±1 hours. The structures of Ceftazidime (CAZ) and Cefotaxime (CTX) which are used as control compounds are as follows: [drawing 12]

Staph. aureus ATCC 6538P = assay: MIC by agar dilution, Staph. aureus ATCC 6538P; conditions: Staphylococcus aureus, ATCC6538P, 17 h; Staph. aureus ATCC 6538P; agar dilution, Mueller-Hinton agar; read-out: Minimal Inhibitory Concentration (MIC)
Description: as §1

Staph. aureus Smith = assay: MIC by agar dilution, Staph. aureus Smith; conditions: Staphylococcus aureus, 17 h, Mueller-Hinton agar, read-out: Minimal Inhibitory Concentration (MIC)
Description: as §1

Staph. aureus C-57 = assay: MIC by agar dilution, Staph. aureus C-57; conditions: Staphylococcus aureus, C57, 17 h, Mueller-Hinton agar, read-out: Minimal Inhibitory Concentration (MIC)
Description: as §1

Staph. aureus C-5113 = assay: MIC by agar dilution, Staph. aureus C-5113; conditions: Staphylococcus aureus, C5113, 17 h, Mueller-Hinton agar, read-out: Minimal Inhibitory Concentration (MIC)
Description: as §1

Staph. aureus C-5216 = assay: MIC by agar dilution, Staph. aureus C-5216; conditions: Staphylococcus aureus, C5216, 17 h, Mueller-Hinton agar, read-out: Minimal Inhibitory Concentration (MIC)
Description: as §1

[1] = system: S. epidermidis ATCC 12228; assay: MIC by agar dilution, S. epidermidis ATCC 12228; conditions: Staphylococcus epidermidis, ATCC12228, 17 h; S. epidermidis ATCC 12228; agar dilution, Mueller-Hinton agar; read-out: Minimal Inhibitory Concentration (MIC)
Description: as §1

Ent. aerogenes IFO 12979 = assay: MIC by agar dilution, Ent. aerogenes IFO 12979; conditions: Klebsiella aerogenes, IFO12979, 17 h, Mueller-Hinton agar, read-out: Minimal Inhibitory Concentration (MIC)
Description: as §1

Ent. cloacae IFO 13535 = assay: MIC by agar dilution, Ent. cloacae IFO 13535; conditions: Enterobacter cloacae, IFO13535, 17 h; Ent. cloacae IFO 13535; agar dilution, Mueller-Hinton agar; read-out: Minimal Inhibitory Concentration (MIC)
Description: as §1

E. coli NIHJ JC-2 = assay: MIC by agar dilution, E. coli NIHJ JC-2; conditions: Escherichia coli, NIHJJC2, 17 h; E. coli NIHJ JC-2; agar dilution, Mueller-Hinton agar; read-out: Minimal Inhibitory Concentration (MIC)
Description: as §1

E. coli No. 29 = assay: MIC by agar dilution, E. coli No. 29; conditions: Escherichia coli, 17 h; E. coli No. 29; agar dilution, Mueller-Hinton agar; read-out: Minimal Inhibitory Concentration (MIC)
Description: as §1

E. coli DY-1 = assay: MIC by agar dilution, E. coli DY-1; conditions: Escherichia coli, DY1, 17 h; E. coli DY-1; agar dilution, Mueller-Hinton agar; read-out: Minimal Inhibitory Concentration (MIC)
Description: as §1

K. pneumoniae NCTC 9632 = assay: MIC by agar dilution, K. pneumoniae NCTC 9632; conditions: Klebsiella pneumoniae, NCTC9632, 17 h; K. pneumoniae NCTC 9632; agar dilution, Mueller-Hinton agar; read-out: Minimal Inhibitory Concentration (MIC)
Description: as §1

M. morganii DY-1 = assay: MIC by agar dilution, M. morganii DY-1; conditions: Morganella morganii, DY1, 17 h; M. morganii DY-1; agar dilution, Mueller-Hinton agar; read-out: Minimal Inhibitory Concentration (MIC)
Description: as §1

[2] = system: Ps. aeruginosa ATCC 10145; assay: MIC by agar dilution, Ps. aeruginosa ATCC 10145; conditions: Pseudomonas aeruginosa, ATCC10145, 17 h, Mueller-Hinton agar, read-out: Minimal Inhibitory Concentration (MIC)
Description: as §1

[3] = system: Ps. aeruginosa NCTC 10490; assay: MIC by agar dilution, Ps. aeruginosa NCTC 10490; conditions: Pseudomonas aeruginosa, NCTC10490, 17 h, Mueller-Hinton agar, read-out: Minimal Inhibitory Concentration (MIC)
Description: as §1

Ps. aeruginosa DY-2 = assay: MIC by agar dilution, Ps. aeruginosa DY-2; conditions: Pseudomonas aeruginosa, DY2, 17 h; Ps. aeruginosa DY-2; agar dilution, Mueller-Hinton agar; read-out: Minimal Inhibitory Concentration (MIC)
Description: as §1

P. vulgaris NCTC 8313 = assay: MIC by agar dilution, P. vulgaris NCTC 8313; conditions: Proteus vulgaris, NCTC8313, 17 h; P. vulgaris NCTC 8313; agar dilution, Mueller-Hinton agar; read-out: Minimal Inhibitory Concentration (MIC)
Description: as §1

Prov. stuartii IFO 12930 = assay: MIC by agar dilution, Prov. stuartii IFO 12930; conditions: Providencia stuartii, IFO12930, 17 h, Mueller-Hinton agar, read-out: Minimal Inhibitory Concentration (MIC)
Description: as §1

[4] = system: Ser. marcescens IFO 12648; assay: MIC by agar dilution, Ser. marcescens IFO 12648; conditions: Serratia marcescens, IFO12648, 17 h; Ser. marcescens IFO 12648; agar dilution, Mueller-Hinton agar; read-out: Minimal Inhibitory Concentration (MIC)
Description: as §1

MIC (B. subtilis ATCC 6633) [µg/mL] | MIC (Staph. aureus ATCC 6538P) [µg/mL] | MIC (Staph. aureus Smith) [µg/mL] | MIC (Staph. aureus C-57) [µg/mL] | MIC (Staph. aureus C-5113) [µg/mL] | MIC (Staph. aureus C-5216) [µg/mL] | MIC [1] [µg/mL] | MIC (Ent. aerogenes IFO 12979) [µg/mL] | MIC (Ent. cloacae IFO 13535) [µg/mL] | MIC (E. coli NIHJ JC-2) [µg/mL] | MIC (E. coli No. 29) [µg/mL] | MIC (E. coli DY-1) [µg/mL] | MIC (K. pneumoniae NCTC 9632) [µg/mL] | MIC (M. morganii DY-1) [µg/mL] | MIC [2] [µg/mL] | MIC [3] [µg/mL] | MIC (Ps. aeruginosa DY-2) [µg/mL] | MIC (P. vulgaris NCTC 8313) [µg/mL] | MIC (Prov. stuartii IFO 12930) [µg/mL] | MIC [4] [µg/mL] | SMILES
0.1 (≈ 0.165 µM) | 0.1 (≈ 0.165 µM) | 0.1 (≈ 0.165 µM) | 12.5 (≈ 20.6 µM) | 0.39 (≈ 0.642 µM) | 0.78 (≈ 1.28 µM) | 0.05 (≈ 0.0823 µM) | 0.05 (≈ 0.0823 µM) | 0.2 (≈ 0.329 µM) | 0.025 (≈ 0.0411 µM) | ≤ 0.006 | ≤ 0.006 | 0.025 (≈ 0.0411 µM) | 0.012 (≈ 0.0197 µM) | 0.78 (≈ 1.28 µM) | 0.2 (≈ 0.329 µM) | 3.13 (≈ 5.15 µM) | 0.012 (≈ 0.0197 µM) | ≤ 0.006 | 0.012 (≈ 0.0197 µM) | Nc1nc(C(=NOCF)C(=O)NC2C(=O)N3C(C(=O)[O-])=C(C[n+]4ccn5c(SCCO)ccc5c4)CSC23)cs1 (stereo not drawn) [Ex. 10, 7-β-[(Z)-2-(2-aminothiazol-4-yl)-2-fluoromethoxyiminoacetamido]-3-[6-(2-hydroxyethylthio)pyrrolo[1,2-a]pyrazinium-2-yl]methyl-3-cephem-4-carboxylate]
0.1 (≈ 0.183 µM) | 0.2 (≈ 0.367 µM) | 0.2 (≈ 0.367 µM) | 12.5 (≈ 22.9 µM) | 0.2 (≈ 0.367 µM) | 0.2 (≈ 0.367 µM) | 0.025 (≈ 0.0458 µM) | ≤ 0.006 | 0.025 (≈ 0.0458 µM) | 0.012 (≈ 0.022 µM) | ≤ 0.006 | ≤ 0.006 | ≤ 0.006 | ≤ 0.006 | 0.39 (≈ 0.715 µM) | 0.2 (≈ 0.367 µM) | 1.56 (≈ 2.86 µM) | ≤ 0.006 | ≤ 0.006 | ≤ 0.006 | Nc1nc(C(=NOCCF)C(=O)NC2C(=O)N3C(C(=O)[O-])=C(C[n+]4ccn5cccc5c4)CSC23)cs1 (stereo not drawn) [Ex. 5, 7-β-[(Z)-2-(2-aminothiazol-4-yl)-2-(2-fluoroethoxyimino)acetamido]-3-(pyrrolo[1,2-a]pyrazinium-2-yl)methyl-3-cephem-4-carboxylate]
0.1 (≈ 0.16 µM) | 0.2 (≈ 0.32 µM) | 1.56 (≈ 2.5 µM) | 6.25 (≈ 10 µM) | 1.56 (≈ 2.5 µM) | 0.78 (≈ 1.25 µM) | 0.1 (≈ 0.16 µM) | 0.1 (≈ 0.16 µM) | 0.78 (≈ 1.25 µM) | 0.2 (≈ 0.32 µM) | 0.1 (≈ 0.16 µM) | 0.025 (≈ 0.0401 µM) | 0.1 (≈ 0.16 µM) | 0.2 (≈ 0.32 µM) | 1.56 (≈ 2.5 µM) | 1.56 (≈ 2.5 µM) | 12.5 (≈ 20 µM) | 0.012 (≈ 0.0192 µM) | 0.025 (≈ 0.0401 µM) | 0.2 (≈ 0.32 µM) | CO/N=C(\C(=O)N[C@@H]1C(=O)N2C(C(=O)[O-])=C(C[n+]3ccn4c(SCCO)ccc4c3)CS[C@H]12)c1nc(N)sc1Cl [Ex. 52, 7-β-[(Z)-2-(2-amino-5-chlorothiazol-4-yl)-2-methoxyiminoacetamido]-3-[6-(2-hydroxyethylthio)pyrrolo[1,2-a]-pyrazinium-2-yl]methyl-3-cephem-4-carboxylate]
0.1 (≈ 0.176 µM) | 0.2 (≈ 0.351 µM) | 0.78 (≈ 1.37 µM) | 50 (≈ 87.8 µM) | 1.56 (≈ 2.74 µM) | 1.56 (≈ 2.74 µM) | 0.05 (≈ 0.0878 µM) | 0.012 (≈ 0.0211 µM) | 0.2 (≈ 0.351 µM) | 0.05 (≈ 0.0878 µM) | 0.05 (≈ 0.0878 µM) | 0.025 (≈ 0.0439 µM) | 0.05 (≈ 0.0878 µM) | 0.025 (≈ 0.0439 µM) | 3.13 (≈ 5.49 µM) | 0.1 (≈ 0.176 µM) | 6.25 (≈ 11 µM) | ≤ 0.006 | 0.05 (≈ 0.0878 µM) | 0.1 (≈ 0.176 µM) | CCON=C(C(=O)NC1C(=O)N2C(C(=O)[O-])=C(C[n+]3ccn4c(C(C)=O)ccc4c3)CSC12)c1csc(N)n1 (stereo not drawn) [Ex. 19, 7-β-[(Z)-2-(2-aminothiazol-4-yl)-2-ethoxyiminoacetamido]-3-(6-acetylpyrrolo[1,2-a]pyrazinium-2-yl)methyl-3-cephem-4-carboxylate]
